In patent US6551831B2, “Dyes and methods of detection of nucleic acid in immature red blood cells” (Coulter International Corp., priority 2000, dated 2003):
Read-outs that look alike come from different tables or passages of the source.

Assays:
[1] = tested on: calf liver RNA; test: Fluorescence of dyes in PBS with and without free calf liver RNA (spectrofluorometer); assay type: binding; settings: for Fluorescence enhancement ratio (Bound/Unbound): RNA-bound dye intensity / free dye intensity; for Fluorescence Intensity Unbound to RNA / Fluorescence Intensity Bound to RNA: Table 1, peak emission wavelength; for Fluorescence Intensity Unbound to RNA: dye 2 μM in PBS, no RNA; for Fluorescence Intensity Bound to RNA: dye 2 μM, calf liver RNA 8 mg/ml in PBS
Method: For fluorescence measurements, a stock solution of each compound in DMSO was made (as described in Example 1D). A portion of this stock solution was diluted in PBS to obtain a dye concentration of 2 μm. 1 ml of this dilute solution was placed in a glass cuvette and the fluorescence spectra obtained exciting the dye at its excitation wavelength maximum. Next, 1 ml of a solution of free calf liver RNA (Sigma) dissolved in PBS at a concentration of 8 mg/ml, and a measured volume of the dye stock solution was mixed to obtain a dye concentration of 2 μM in the RNA solution. This dye solution diluted in the RNA solution was placed in a glass cuvette and the fluorescence spectra measured using the same excitation as in the previous measurement.
These intensities were obtained at the peak emission wavelengths of each fluorescence spectra measured as described above. FIG. 1C compares the fluorescence intensities of the RNA-bound and unbound dyes in graphical form.

[2] = tested on: reticulocytes
[3] = tested on: Calf thymus DNA; test: Fluorescence of dyes in PBS with and without free calf thymus DNA, excitation 633 nm; assay type: binding; settings: Table 5; for Fluorescence Intensity Unbound to DNA: Group-III dyes in PBS, peak of emission spectrum; for Fluorescence Intensity Bound to DNA 0.5 mg/ml: Group-III dyes
Method: To compare the relative fluorescence intensities of the dyes in bound and unbound states, fluorescence measurements were conducted in a spectrofluorometer by exciting each dye solution at 633 nm under appropriate conditions, recording the fluorescence spectrum of each sample, and measuring the intensities at the peak of these fluorescence spectra. […] Next, the fluorescence spectrum of the dye solution was measured by illuminating the sample at 633 nm.

[4] = tested on: Torula yeast RNA; test: Fluorescence of dyes in PBS with and without free Torula yeast RNA, excitation 633 nm; assay type: binding; settings: Table 4, Group-III dyes; for Fluorescence Intensity Unbound to RNA: conc. 2 μm in PBS, peak of emission spectrum; for Fluorescence Intensity Bound to RNA 1 mg/ml: conc. 2 μm
Method: To compare the relative fluorescence intensities of the dyes in bound and unbound states, fluorescence measurements were conducted in a spectrofluorometer by exciting each dye solution at 633 nm under appropriate conditions, recording the fluorescence spectrum of each sample, and measuring the intensities at the peak of these fluorescence spectra. […] A portion of the stock solution for the Dye-1 was diluted in PBS to obtain a dye concentration of […]. […] The fluorescence spectrum of this dye solution in presence of RNA was measured by illuminating the sample at 633 nm.

[5] = tested on: reticulocytes; test: Rapid staining of reticulocytes in whole blood with dye in rapid staining composition, flow cytometry (HeNe 632.8 nm); assay type: cell-based; settings: 5 μM dye, analyzed immediately
Method: Approximately 11.5 mW of 632.8 nm laser light from the above laser was incident on the beam shaping optics of the flow cytometer. Forward light scatter (FS), side scatter (SS) and one fluorescence (FL) parameter in the orthogonal direction were measured to analyze the red cells. The red cells were gated on a SS vs. FS dotplot. A fixed gate was then used to enumerate […] on a FL vs. FS dotplot. […] The […] reagent is a solution comprising about 20 μg/ml Dodecyl-β-D-maltoside and 0.05% Proclin 300 in PBS at about pH 7.4 and about 290 mOsm. […] The mixture was then aspirated into the XLTM flow cytometer containing the red HeNe laser for analysis. […] The mixture was then aspirated into the XLTM flow cytometer containing the red HeNe laser for analysis. […] The […] reagent is a solution comprising about 20 μg/ml Dodecyl-β-D-maltoside and 0.05% Proclin 300 in PBS at about pH 7.4 and about 290 mOsm. […] The […] reagent is a solution comprising about 20 μg/ml Dodecyl-β-D-maltoside and 0.05% Proclin 300 in PBS at about pH 7.4 and about 290 mOsm. […] The […] reagent is a solution comprising about 20 μg/ml Dodecyl-β-D-maltoside and 0.05% Proclin® 300 in PBS at about pH 7.4 and about 290 mOsm.

Cc1ccc2c(c1)sc(/C=C/C=C1\C=CN(C(C)C)c3ccccc31)[n+]2CCO [ReticRed5]
Fluorescence enhancement ratio (Bound/Unbound) [1]: 292.884 | Fluorescence Intensity Unbound to RNA [1]: 2.24 | Fluorescence Intensity Bound to RNA [1]: 656.06

CCNc1cc2[s+]c3cc(NCC)c(C)cc3nc2cc1C.[Cl-] [New Methylene Blue]
retic percentage ([2]; Gen*S method, blood sample of Example 3): 6.7% | retic percentage ([2]; normal donor of Example 4 Run 3, commercially available clinical hematology analyzer): 0.95%

Cc1ccc2c(c1)sc(/C=C/C=C1\C=CN(CCO)c3ccccc31)[n+]2CCO [ReticRed6]
Fluorescence enhancement ratio (Bound/Unbound) [1]: 225.164 | Fluorescence Intensity Unbound to RNA [1]: 2.75 | Fluorescence Intensity Bound to RNA [1]: 619.2

COc1cc(CN2C=C/C(=C\C=C\c3sc4ccccc4[n+]3CCO)c3ccccc32)cc(OC)c1 [Dye-3]
Fluorescence Intensity Unbound to DNA [3]: 15 | Fluorescence Intensity Bound to DNA 0.5 mg/ml [3]: 400 | Fluorescence Intensity Unbound to RNA [4]: 10 | Fluorescence Intensity Bound to RNA 1 mg/ml [4]: 328 | percentage of reticulocytes enumerated ([5]; Example 9 Run 7, normal donor): 2.3% | percentage of reticulocytes enumerated ([5]; Example 9 Run 8, abnormal donor (reference 12%)): approximately 14.6% | percentage of reticulocytes enumerated ([5]; Example 9 Run 9, another abnormal donor (reference 27%)): approximately 24%

OCC[n+]1c(/C=C/C=C2\C=CN(Cc3ccccc3)c3ccccc32)sc2ccccc21 [Dye-5]
Fluorescence Intensity Unbound to DNA [3]: 10 | Fluorescence Intensity Bound to DNA 0.5 mg/ml [3]: 660 | Fluorescence Intensity Unbound to RNA [4]: 10 | Fluorescence Intensity Bound to RNA 1 mg/ml [4]: 420

C[n+]1c(/C=C/C=C2\C=CN(Cc3ccccc3B(O)O)c3ccccc32)sc2ccccc21 [Dye-6]
Fluorescence Intensity Unbound to DNA [3]: 4 | Fluorescence Intensity Bound to DNA 0.5 mg/ml [3]: 380 | Fluorescence Intensity Unbound to RNA [4]: 6 | Fluorescence Intensity Bound to RNA 1 mg/ml [4]: 410
